By inhibition in vivo is commonly meant the percentage by which the read-out fell short of the control.

Active and inactive are the calls of the source. The rule behind the calls is not given here.

What all share (type): functional
Assay [1] has as its system Rattus norvegicus. The experiment in a line: Effect on glutathione reductase level in Wistar Rattus norvegicus (rat) liver measured NADPH oxidized per min per mg of protein at 30 mg/kg, po after 10 days (reference value: 4.19 +/ 0.42 nmol).
The test system of assay [2] is Rattus norvegicus. The experiment in a line: Effect on LDH level in Wistar Rattus norvegicus (rat) serum at 30 mg/kg, po qd after 10 days (reference value: 249.89 +/- 13.26 U/I).
In assay [3] the test system is Rattus norvegicus. The experiment in a line: Effect on ALP level in Wistar Rattus norvegicus (rat) serum at 30 mg/kg, po qd after 10 days (reference value: 39.5 +/- 3.86 U/I).
The subject of assay [4] is Rattus norvegicus. Nature of the assay: Effect on GST level in Wistar Rattus norvegicus (rat) liver measured CDNB conjugated per min per mg of protein at 30 mg/kg, po after 10 days (reference value: 0.86 +/- 0.08 mmol).
Assay [5] has as its system Rattus norvegicus. The experiment in a line: Effect on gamma-glutamyl transferase level in Wistar Rattus norvegicus (rat) serum at 30 mg/kg, po qd after 10 days (reference value: 0.57 +/- 0.04 U/I).
Assay [6] deals with Rattus norvegicus. Nature of the assay: Anti-inflammatory activity in Wistar Rattus norvegicus (rat) assessed as inhibition of carrageenan-induced paw edema at 30 mg/kg, po administered 30 min prior to carrageenan challenge measured at 90 min relative to untreated control. Background: The carrageenan paw model is a standard test of acute inflammation.
In assay [7] the test system is Rattus norvegicus. The experiment in a line: Effect on glutathione peroxidase level in Wistar Rattus norvegicus (rat) liver measured GSH oxidized per min per mg of protein at 30 mg/kg, po after 10 days (reference value: 47.47 +/- 3.86 mmol).
For assay [8], the system named is Rattus norvegicus. The experiment in a line: Effect on TBARS level in Wistar Rattus norvegicus (rat) serum at 30 mg/kg, po qd after 10 days (reference value: 0.82 +/- 0.073 nmol/ml).
The subject of assay [9] is Rattus norvegicus. The experiment in a line: Anti-inflammatory activity in Wistar Rattus norvegicus (rat) assessed as inhibition of carrageenan-induced paw edema at 30 mg/kg, po administered 30 min prior to carrageenan challenge measured at 30 min post carrageenan challenge relative to untreated control.
The subject of assay [10] is Rattus norvegicus. The experiment in a line: Effect on SGPT level in Wistar Rattus norvegicus (rat) at 30 mg/kg, po qd after 10 days (reference value: 38.77 +/- 4.25 U/I).
In assay [11] the test system is Rattus norvegicus. Nature of the assay: Anti-inflammatory activity in Wistar Rattus norvegicus (rat) assessed as inhibition of carrageenan-induced paw edema at 30 mg/kg, po administered 30 min prior to carrageenan challenge measured at 60 min relative to untreated control.
In assay [12] the test system is Rattus norvegicus. Nature of the assay: Anti-inflammatory activity in Wistar Rattus norvegicus (rat) assessed as inhibition of carrageenan-induced paw edema at 30 mg/kg, po administered 30 min prior to carrageenan challenge measured at 120 min relative to untreated control.
Assay [13] deals with Rattus norvegicus. Nature of the assay: Effect on GSH level in Wistar Rattus norvegicus (rat) liver measured per mg of protein at 30 mg/kg, po after 10 days (reference value: 1.84 +/- 0.092 mg).
Assay [14] relates to Rattus norvegicus. Nature of the assay: Anti-inflammatory activity in Wistar Rattus norvegicus (rat) assessed as inhibition of carrageenan-induced paw edema at 30 mg/kg, po administered 30 min prior to carrageenan challenge measured at 180 min relative to untreated control.
The test system of assay [15] is Rattus norvegicus. The experiment in a line: Effect on SGOT level in Wistar Rattus norvegicus (rat) at 30 mg/kg, po qd after 10 days (reference value: 145.50 +/- 13.86 U/I).
Assay [16] can be described thus: Antioxidant activity assessed as inhibition of linoleic acid peroxidation at 100 mg/l after 24 hr by spectrophotometric analysis.
Assay [17] is described as follows: Antioxidant activity assessed as reduction of Fe3+ to Fe2+ at 20 to 140 ug/ml after 30 min by spectrophotometric analysis.
For assay [18], the system named is Rattus norvegicus. Nature of the assay: Antipyretic activity in Wistar Rattus norvegicus (rat) assessed as decrease in Brewer's yeast solution-induced hyperthermia at 20 mg/kg, po measured after 1 hr (reference value: 37 +/- 3.55 degC).
For assay [19], the system named is Rattus norvegicus. Nature of the assay: Antipyretic activity in Wistar Rattus norvegicus (rat) assessed as decrease in Brewer's yeast solution-induced hyperthermia at 20 mg/kg, po measured after 2 hr (reference value: 37 +/- 1.7 degC).
Assay [20] deals with Rattus norvegicus. Nature of the assay: Antipyretic activity in Wistar Rattus norvegicus (rat) assessed as decrease in Brewer's yeast solution-induced hyperthermia at 20 mg/kg, po measured after 3 hr (reference value: 36.8 +/- 1.9 degC).
Assay [21] relates to Radical scavenging activity. Nature of the assay: Antioxidant activity assessed as DPPH free radical scavenging activity at 0.06 mg/ml after 5 to 60 min by spectrophotometric analysis. On the technique in general: The DPPH test is a chemical assay of radical scavenging.

With `O=C([O-])Cc1ccccc1Nc1c(Cl)cccc1Cl.[Na+]` [DICLOFENAC SODIUM], the Activity with Rattus norvegicus [1] is 3.28 nmol; in the assay with Rattus norvegicus [2], 320.69 U/L; with Rattus norvegicus [3], 75.25 U/L; in the assay with Rattus norvegicus [4] it was 0.63 mmol; in the assay on Rattus norvegicus [5] it was 1.37 U/L; in the assay on Rattus norvegicus [7] it was 32.09 mmol. The Activity with Rattus norvegicus [8] worked out at 1.41 nmol/mL; with Rattus norvegicus [10], 84.43 U/L; in the assay on Rattus norvegicus [13], 0.79 mg; in the assay with Rattus norvegicus [15] it was 201.27 U/L. Moreover, the inhibition in vivo at 30 mg/kg worked out at 86.3% with Rattus norvegicus [6]; 41.3% in the assay with Rattus norvegicus [9]; 82% in the assay with Rattus norvegicus [11]; 92.8% in the assay on Rattus norvegicus [12]; 100% in the assay on Rattus norvegicus [14].

In the case of `Cc1cc(C(C)(C)C)c(O)c(C(C)(C)C)c1`, the inhibition result in [16] was “Active”. Besides, the result in assay [17] was Active.

Consider `CC(=O)Nc1ccc(O)cc1` [ACETAMINOPHEN], for which the T in the assay with Rattus norvegicus [18] was determined as 37 °C; with Rattus norvegicus [19], 36.8 °C; in the assay on Rattus norvegicus [20], 36.4 °C.

Turning to `Cc1c(C)c2c(c(C)c1O)CCC(C)(C(=O)O)O2` (centres undefined), the outcome in assay [21] was Active. Besides, in assay [16], the inhibition entry was “Active”.

With `Cc1c(C)c2c(c(C)c1O)CC[C@@](C)(CCC[C@H](C)CCC[C@H](C)CCCC(C)C)O2`, the inhibition entry in assay [16] was “Active”. Further, in assay [17], the outcome was Active.

For the origin of these results see ChEMBL document CHEMBL3046756, “Synthesis, anti-inflammatory, and structure antioxidant activity relationship of novel 4-quinazoline” (Med Chem Res, 2013).
